Earlier results as cited in US20100144679A1, “MEDICATION KITS AND FORMULATIONS FOR PREVENTING, TREATING OR REDUCING SECONDARY FRACTURES AFTER PREVIOUS FRACTURE” (DUKE UNIVERSITY, priority 2007, published 2010).

Legend:
bone resorption [1] = tested on: bone resorption
bone resorption [2] = tested on: bone resorption; remark: listed apart in the source
[3] = patients with reduced creatinine clearances

Row | Structure (SMILES) | concentrations at which bone resorption is inhibited in vitro (bone resorption [1]) | untoward effects on bone formation or mineralization (bone resorption [2]; at the concentrations and doses that inhibit bone resorption) | doses at which bone resorption is inhibited in vivo (bone resorption [2]; in vivo) | fall rates [3]
1 | O=P(O)(O)C(O)(Cn1ccnc1)P(=O)(O)O [zoledronic acid, 1-hydroxy-2-(imidazol-1-yl)ethane-1,1-d-iphosphonic acid] | 0.3 to 30 nM | without exerting any untoward effects on either bone formation or mineralization | 0.3 to 30 µg/kg | 
2 | C=C1/C(=C\C=C2/CCC[C@]3(C)[C@@H]([C@H](C)CCCC(C)(C)O)CC[C@@H]23)C[C@@H](O)C[C@@H]1O [calcitriol] |  |  |  | reduces fall rates
